Laboratory results reported in PubChem BioAssay (NCI).
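Grown in 96-well plates, cells were treated for 48 hours with each compound at five concentrations. Insufficient inhibition: endpoint recorded as highest concentration tested. The concentration for full growth arrest is given as TGI.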

How the values were obtained:
Assay in all cases: DTP human tumour cell line panel, 48 h
SK-OV-3 ovarian = test system: SK-OV-3 ovarian
SNB-19 CNS = test system: SNB-19 CNS
SF-268 CNS = test system: SF-268 CNS
HOP-62 NSCLC = test system: HOP-62 NSCLC
SR leukemia = test system: SR leukemia
UO-31 renal = test system: UO-31 renal
CCRF-CEM leukemia = test system: CCRF-CEM leukemia
OVCAR-4 ovarian = test system: OVCAR-4 ovarian
HCT-15 colon = test system: HCT-15 colon
M14 melanoma = test system: M14 melanoma
LOX IMVI melanoma = test system: LOX IMVI melanoma
786-0 renal = test system: 786-0 renal
HL-60(TB) leukemia = test system: HL-60(TB) leukemia
KM12 colon = test system: KM12 colon
NCI-H226 lung = test system: NCI-H226 lung
NCI-H23 lung = test system: NCI-H23 lung
OVCAR-3 ovarian = test system: OVCAR-3 ovarian
MDA-MB-435 = test system: MDA-MB-435
SNB-75 CNS = test system: SNB-75 CNS
IGROV1 ovarian = test system: IGROV1 ovarian
MDA-N = test system: MDA-N
HT29 colon = test system: HT29 colon
RPMI-8226 leukemia = test system: RPMI-8226 leukemia
A549 NSCLC = test system: A549 NSCLC
NCI-H522 lung = test system: NCI-H522 lung
SK-MEL-2 melanoma = test system: SK-MEL-2 melanoma
OVCAR-8 ovarian = test system: OVCAR-8 ovarian
SK-MEL-28 melanoma = test system: SK-MEL-28 melanoma
EKVX NSCLC = test system: EKVX NSCLC
COLO 205 colon = test system: COLO 205 colon
ACHN renal = test system: ACHN renal
NCI-H460 lung = test system: NCI-H460 lung
MDA-MB-231 breast = test system: MDA-MB-231 breast
MCF7 breast = test system: MCF7 breast
UACC-257 melanoma = test system: UACC-257 melanoma
T-47D breast = test system: T-47D breast
CAKI-1 renal = test system: CAKI-1 renal
SF-539 CNS = test system: SF-539 CNS
TK-10 renal = test system: TK-10 renal
UACC-62 melanoma = test system: UACC-62 melanoma
SN12C renal = test system: SN12C renal
RXF 393 renal = test system: RXF 393 renal
PC-3 prostate = test system: PC-3 prostate
MOLT-4 leukemia = test system: MOLT-4 leukemia
HOP-92 NSCLC = test system: HOP-92 NSCLC
OVCAR-5 ovarian = test system: OVCAR-5 ovarian
HCC-2998 colon = test system: HCC-2998 colon
SW-620 colon = test system: SW-620 colon
SK-MEL-5 melanoma = test system: SK-MEL-5 melanoma
DU-145 prostate = test system: DU-145 prostate
SF-295 CNS = test system: SF-295 CNS
NCI/ADR-RES ovarian = test system: NCI/ADR-RES ovarian
U251 CNS = test system: U251 CNS
K-562 leukemia = test system: K-562 leukemia
HCT-116 colon = test system: HCT-116 colon
HS 578T breast = test system: HS 578T breast
MALME-3M melanoma = test system: MALME-3M melanoma

c1ccc2c(c1)CCN2CCN1CCc2ccccc21
TGI (SK-OV-3 ovarian): > 10 µM
TGI (SNB-19 CNS): > 10 µM
TGI (SF-268 CNS): > 10 µM
TGI (HOP-62 NSCLC): > 10 µM
TGI (SR leukemia): > 10 µM
TGI (UO-31 renal): > 10 µM
TGI (CCRF-CEM leukemia): > 10 µM
TGI (OVCAR-4 ovarian): > 10 µM
TGI (HCT-15 colon): > 10 µM
TGI (M14 melanoma): > 10 µM
TGI (LOX IMVI melanoma): > 10 µM
TGI (786-0 renal): > 10 µM
TGI (HL-60(TB) leukemia): > 10 µM
TGI (KM12 colon): > 10 µM
TGI (NCI-H226 lung): > 10 µM
TGI (NCI-H23 lung): > 10 µM
TGI (OVCAR-3 ovarian): > 10 µM
TGI (MDA-MB-435): > 10 µM
TGI (SNB-75 CNS): > 10 µM
TGI (IGROV1 ovarian): > 10 µM
TGI (MDA-N): > 10 µM
TGI (HT29 colon): > 10 µM
TGI (RPMI-8226 leukemia): > 10 µM
TGI (A549 NSCLC): > 10 µM
TGI (NCI-H522 lung): > 10 µM
TGI (SK-MEL-2 melanoma): > 10 µM
TGI (OVCAR-8 ovarian): > 10 µM
TGI (SK-MEL-28 melanoma): > 10 µM
TGI (EKVX NSCLC): > 10 µM
TGI (COLO 205 colon): > 10 µM
TGI (ACHN renal): > 10 µM
TGI (NCI-H460 lung): > 10 µM
TGI (MDA-MB-231 breast): > 10 µM
TGI (MCF7 breast): > 10 µM
TGI (UACC-257 melanoma): > 10 µM
TGI (T-47D breast): > 10 µM
TGI (CAKI-1 renal): > 10 µM
TGI (SF-539 CNS): > 10 µM
TGI (TK-10 renal): > 10 µM
TGI (UACC-62 melanoma): > 10 µM
TGI (SN12C renal): > 10 µM
TGI (RXF 393 renal): > 10 µM
TGI (PC-3 prostate): > 10 µM
TGI (MOLT-4 leukemia): > 10 µM
TGI (HOP-92 NSCLC): > 10 µM
TGI (OVCAR-5 ovarian): > 10 µM
TGI (HCC-2998 colon): > 10 µM
TGI (SW-620 colon): > 10 µM
TGI (SK-MEL-5 melanoma): > 10 µM
TGI (DU-145 prostate): > 10 µM
TGI (SF-295 CNS): > 10 µM
TGI (NCI/ADR-RES ovarian): > 10 µM
TGI (U251 CNS): > 10 µM
TGI (K-562 leukemia): > 10 µM
TGI (HCT-116 colon): > 10 µM
TGI (HS 578T breast): > 10 µM

CC1(C)NC(C)(C)/C(=N\O)C(=NO)/C1=N/O
TGI (SK-OV-3 ovarian): > 100 µM
TGI (SNB-19 CNS): > 100 µM
TGI (SF-268 CNS): > 100 µM
TGI (HOP-62 NSCLC): > 100 µM
TGI (SR leukemia): > 100 µM
TGI (UO-31 renal): > 100 µM
TGI (CCRF-CEM leukemia): > 100 µM
TGI (OVCAR-4 ovarian): > 100 µM
TGI (HCT-15 colon): > 100 µM
TGI (M14 melanoma): > 100 µM
TGI (LOX IMVI melanoma): > 100 µM
TGI (786-0 renal): > 100 µM
TGI (HL-60(TB) leukemia): > 100 µM
TGI (KM12 colon): > 100 µM
TGI (NCI-H226 lung): > 100 µM
TGI (NCI-H23 lung): > 100 µM
TGI (OVCAR-3 ovarian): > 100 µM
TGI (MDA-MB-435): > 100 µM
TGI (SNB-75 CNS): > 100 µM
TGI (IGROV1 ovarian): > 100 µM
TGI (MDA-N): > 100 µM
TGI (HT29 colon): > 100 µM
TGI (RPMI-8226 leukemia): > 100 µM
TGI (A549 NSCLC): > 100 µM
TGI (SK-MEL-2 melanoma): > 100 µM
TGI (OVCAR-8 ovarian): > 100 µM
TGI (SK-MEL-28 melanoma): > 100 µM
TGI (EKVX NSCLC): > 100 µM
TGI (COLO 205 colon): > 100 µM
TGI (ACHN renal): > 100 µM
TGI (NCI-H460 lung): > 100 µM
TGI (MDA-MB-231 breast): > 100 µM
TGI (MCF7 breast): > 100 µM
TGI (UACC-257 melanoma): > 100 µM
TGI (T-47D breast): > 100 µM
TGI (CAKI-1 renal): > 100 µM
TGI (SF-539 CNS): > 100 µM
TGI (TK-10 renal): > 100 µM
TGI (UACC-62 melanoma): > 100 µM
TGI (SN12C renal): > 100 µM
TGI (RXF 393 renal): > 100 µM
TGI (PC-3 prostate): > 100 µM
TGI (MOLT-4 leukemia): > 100 µM
TGI (HOP-92 NSCLC): > 100 µM
TGI (OVCAR-5 ovarian): > 100 µM
TGI (HCC-2998 colon): > 100 µM
TGI (SW-620 colon): > 100 µM
TGI (SK-MEL-5 melanoma): > 100 µM
TGI (DU-145 prostate): > 100 µM
TGI (MALME-3M melanoma): > 100 µM
TGI (SF-295 CNS): > 100 µM
TGI (NCI/ADR-RES ovarian): > 100 µM
TGI (U251 CNS): > 100 µM
TGI (K-562 leukemia): > 100 µM
TGI (HCT-116 colon): > 100 µM
TGI (HS 578T breast): > 100 µM
